Values of other authors, collected in US20130133101A1, “PLANTS RESISTANT TO PATHOGENS AND METHODS FOR PRODUCTION THEREOF” (GENOPLANTE-VALOR, priority 2010, published 2013).
Non-standard residues stand in square brackets, D forms with d. sY = N[C@@H](Cc1ccc(OS(=O)(=O)O)cc1)C(=O)O

Legend:
Botrytis tulipae = settings: in vitro, dose-dependent manner
Phoma nareissi = settings: in vitro, dose-dependent manner

| Substance | mycelium growth inhibition (Botrytis tulipae) | mycelium growth inhibition (Phoma nareissi) |
| --- | --- | --- |
| H-[sY]I[sY]T-OH [PSKβ] | inhibit in vitro the mycelium growth | inhibit in vitro the mycelium growth |
| H-[sY]I[sY]TQ-OH [PSKα] | inhibit in vitro the mycelium growth | inhibit in vitro the mycelium growth |
